From patent publication US20230089073A1 (Carmot Therapeutics, Inc., priority 2021, published 2023)

How the values were obtained:
cynomolgus monkeys = assay: Intravenous Glucose Tolerance Test (IVGTT) in Cynomolgus Monkeys; type: in vivo, cynomolgus monkeys (Macaca fascicularis); settings: test article intravenous bolus 1-6 minutes prior to IV glucose 0.5 g/kg, plasma insulin 0-60 minutes, FIG. 1
Description: Intravenous Glucose Tolerance Test (IVGTT) in Cynomolgus Monkeys
Aged ([…]) cynomolgus monkeys (Macaca fascicularis; N=4-5/test article) were fasted overnight and anesthetized with ketamine prior to the intravenous glucose tolerance test (IVGTT). The test articles were formulated at 6 mg/mL in vehicle (5% polyethylene glycol 400: 95% (12% (w/v) sulfobutylether-β-cyclodextrin in deionized water) (v/v)]) and administered by intravenous bolus into a peripheral vein 1-6 minutes prior to the IVGTT. The IVGTT was initiated by administration of an IV bolus of glucose (0.5 g/kg as a 50% glucose solution). Blood samples were collected from a peripheral vein 0, 1, 3, 5, 10, 20, 40 and 60 minutes upon completion of the IV bolus glucose injection. The blood samples were collected directly into potassium ethylene diamine tetra-acetic acid tubes and plasma separated by centrifugation at 2,500 g for 10 minutes within 30 minutes of collection. The plasma from all time points was analyzed for insulin concentrations ([…]) using a Cobas e411 Immunology analyzer. Insulin area-under-the-curve (AUC) was calculated using GraphPad Prism software (v 9).

human GLP-1 receptor = biological target: T1, human GLP-1 receptor (Homo sapiens, UniProt P43220); assay: GLP-1R cAMP Assay; type: cell-based; settings: cAMP accumulation in CHO cells stably overexpressing the human GLP-1 receptor; 30 min treatment; HitHunter cAMP kit; read-out: EC50
T1 construct: expressed in transfected cells
How it was run: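 Luminescent enzyme-complementation detection of cAMP, read after cell lysis and overnight incubation, with dose-response curve fitting. Stimulation lasted 30 min, using 20-point triplicate dosing on CHO cells (10,000 per well) stably overexpressing human GLP-1R.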

T1 sequence (P43220 24-463): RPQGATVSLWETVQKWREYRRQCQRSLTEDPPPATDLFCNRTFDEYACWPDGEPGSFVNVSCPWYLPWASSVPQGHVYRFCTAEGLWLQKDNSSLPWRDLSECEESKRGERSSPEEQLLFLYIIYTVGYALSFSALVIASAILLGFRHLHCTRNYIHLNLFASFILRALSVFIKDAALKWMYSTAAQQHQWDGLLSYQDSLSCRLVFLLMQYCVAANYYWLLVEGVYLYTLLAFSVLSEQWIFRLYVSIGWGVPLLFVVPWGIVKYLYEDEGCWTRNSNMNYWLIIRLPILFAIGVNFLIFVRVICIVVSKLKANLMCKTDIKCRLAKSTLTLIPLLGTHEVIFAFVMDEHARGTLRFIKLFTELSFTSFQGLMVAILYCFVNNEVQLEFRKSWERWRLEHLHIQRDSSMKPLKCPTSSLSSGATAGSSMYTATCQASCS

In the case of `O=C(O)c1cc(F)c2nc(CN3CCC(Oc4ccnc(COc5ccc(Cl)cc5F)c4)CC3)n(C[C@@H]3CCO3)c2c1` [Compound 335], the “insulin AUC (insulin secretion)” value (cynomolgus monkeys) is reported as “substantial increase” and the EC50 (human GLP-1 receptor) is reported as under 50 nM.
For `O=C(O)c1ccc2nc(CN3CCC(Oc4ccnc(COc5ccc(F)cc5Cl)n4)CC3)n(C[C@@H]3CCO3)c2c1` [Compound 326], the “insulin AUC (insulin secretion)” value (cynomolgus monkeys) was “substantial increase” and the EC50 (human GLP-1 receptor) was under 50 nM.
In the case of `CCn1cncc1Cn1c(CN2CCC(Oc3ccnc(COc4ccc(Cl)cc4C#N)c3)CC2)nc2ccc(C(=O)O)cc21` [Compound 171, 2-{[4-({2-[(4-chloro-2-cyanophenoxy)methyl]pyridin-4-yl}oxy)piperidin-1-yl]methyl}-1-[(1-ethyl-1H-imidazol-5-yl)methyl]-1H-1,3-benzodiazole-6-carboxylic acid], the “insulin AUC (insulin secretion)” value (cynomolgus monkeys) is reported as “substantial increase” and the EC50 (human GLP-1 receptor) is reported as under 50 nM.
In the case of `CCn1cncc1Cn1c(CN2CCC(Oc3ccnc(COc4ccc(Cl)cc4Cl)c3)CC2)nc2ccc(C(=O)O)cc21` [Example 145, 2-((4-((2-((2,4-Dichlorophenoxy)methyl)pyridin-4-yl)oxy)piperidin-1-yl)methyl)-1-((1-ethyl-1H-imidazol-5-yl)methyl)-1H-benzo[d]imidazole-6-carboxylic acid], the “insulin AUC (insulin secretion)” value (cynomolgus monkeys) is reported as “substantial increase” and the EC50 (human GLP-1 receptor) is reported as under 50 nM.
With `C[C@H]1C[C@@H](Oc2ccnc(COc3ccc(F)cc3C#N)n2)CCN1Cc1nc2ccc(C(=O)O)cc2n1C[C@@H]1CCO1` [Example 355, 2-(((2S,4S)-4-((2-((2-cyano-4-fluorophenoxy)methyl)pyrimidin-4-yl)oxy)-2-methylpiperidin-1-yl)methyl)-1-(((S)-oxetan-2-yl)methyl)-1H-benzo[d]imidazole-6-carboxylic acid] the “insulin AUC (insulin secretion)” value (cynomolgus monkeys) was “substantial increase” and the EC50 (human GLP-1 receptor) was under 50 nM.
For `C[C@H]1C[C@@H](Oc2ccnc(COc3ccc(C#N)cc3F)n2)CCN1Cc1nc2ccc(C(=O)O)cc2n1C[C@@H]1CCO1` [Example 313, 2-(((2S,4S)-4-((2-((4-Cyano-2-fluorophenoxy)methyl)pyrimidin-4-yl)oxy)-2-methylpiperidin-1-yl)methyl)-1-(((S)-oxetan-2-yl)methyl)-1H-benzo[d]imidazole-6-carboxylic acid], the “insulin AUC (insulin secretion)” value (cynomolgus monkeys) was “substantial increase” and the EC50 (human GLP-1 receptor) was under 50 nM.
In the case of `O=C(O)c1ccc2nc(CN3CCC(Oc4ccnc(COc5ccc(C(F)(F)F)cc5F)n4)CC3)n(C[C@@H]3CCO3)c2c1` [Compound 338], the “insulin AUC (insulin secretion)” value (cynomolgus monkeys) is reported as “substantial increase” and the EC50 (human GLP-1 receptor) is reported as under 50 nM.
In the case of `Cc1ccc(N(C)c2ccc(F)c(C(=O)N3CCN(Cc4nc5ccc(C(=O)O)cc5n4C[C@@H]4CCO4)CC3)c2)c(Cl)c1` [Compound 98, 2-[(4-{5-[(2-chloro-4-methylphenyl)(methyl)amino]-2-fluorobenzoyl}piperazin-1-yl)methyl]-1-{[(2S)-oxetan-2-yl]methyl}-1H-1,3-benzodiazole-6-carboxylic acid], the EC50 (human GLP-1 receptor) is reported as under 50 nM.
Compound `Cc1ccc(N(C)c2ccc(C3CC3)c(C(=O)N3CCN(Cc4nc5ccc(C(=O)O)cc5n4C[C@@H]4CCO4)CC3)c2)c(Cl)c1` [Compound 93, 2-[(4-{5-[(2-chloro-4-methylphenyl)(methyl)amino]-2-cyclopropylbenzoyl}piperazin-1-yl)methyl]-1-{[(2S)-oxetan-2-yl]methyl}-1H-1,3-benzodiazole-6-carboxylic acid] has an EC50 (human GLP-1 receptor) of 50 to 500 nM.
In the case of `O=C(c1ccc(-c2nnn[nH]2)nc1)N1CCN(Cc2ccc(COc3ccc(Cl)cc3Cl)o2)CC1` [Compound 97, 1-({5-[(2,4-dichlorophenoxy)methyl]furan-2-yl}methyl)-4-[6-(1H-1,2,3,4-tetrazol-5-yl)pyridine-3-carbonyl]piperazine], the EC50 (human GLP-1 receptor) is reported as over 500 nM.
